Data reported in publication PMC10423218, “Molecular mechanism underlying regulation of Arabidopsis CLCa transporter by nucleotides and phospholipids” (Nature Communications, 2023).

Tests used:
[1] = target: T1, AtCLCa (Arabidopsis thaliana, UniProt P92941); assay: whole-cell patch clamp, HEK293T; type: cell-based; parameters: gene CLC-A; full-length, homodimer; patch clamp: pKH3 vector in HEK293T; settings: 5 mM in pipette (cytosolic side); nitrate bath; pH 7.4
T1 sequence (P92941 1-775): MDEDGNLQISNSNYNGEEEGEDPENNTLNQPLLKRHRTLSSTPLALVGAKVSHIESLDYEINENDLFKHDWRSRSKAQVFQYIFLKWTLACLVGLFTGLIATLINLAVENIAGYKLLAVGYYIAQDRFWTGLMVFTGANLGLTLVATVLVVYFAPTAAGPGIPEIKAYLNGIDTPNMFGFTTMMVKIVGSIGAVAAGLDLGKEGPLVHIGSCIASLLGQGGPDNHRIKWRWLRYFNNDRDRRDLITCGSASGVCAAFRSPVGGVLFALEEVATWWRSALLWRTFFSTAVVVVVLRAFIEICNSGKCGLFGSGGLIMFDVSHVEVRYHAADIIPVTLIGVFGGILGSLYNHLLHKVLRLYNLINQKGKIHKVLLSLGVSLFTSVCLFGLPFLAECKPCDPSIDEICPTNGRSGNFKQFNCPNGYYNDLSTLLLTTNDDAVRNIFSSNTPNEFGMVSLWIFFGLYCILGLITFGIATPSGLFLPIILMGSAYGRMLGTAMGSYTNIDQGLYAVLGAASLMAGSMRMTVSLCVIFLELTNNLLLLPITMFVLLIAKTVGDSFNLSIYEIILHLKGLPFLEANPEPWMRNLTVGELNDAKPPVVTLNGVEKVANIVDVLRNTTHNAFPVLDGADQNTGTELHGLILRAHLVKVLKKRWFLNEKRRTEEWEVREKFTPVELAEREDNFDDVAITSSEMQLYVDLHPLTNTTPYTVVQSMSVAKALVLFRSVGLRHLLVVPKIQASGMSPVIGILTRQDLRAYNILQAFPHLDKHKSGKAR

[2] = target: T1, AtCLCa; assay: whole-cell patch clamp, HEK293T; type: cell-based; parameters: gene CLC-A; full-length, homodimer; patch clamp: pKH3 vector in HEK293T; settings: pipette (cytosolic side); pH 7.4
[3] = target: T2, AtCLCa (Arabidopsis thaliana, UniProt P92941, E55A/S56A); assay: whole-cell patch clamp, HEK293T; type: cell-based; settings: 5 mM in pipette (cytosolic side); nitrate bath; pH 7.4
T2 construct: gene CLC-A; full-length, homodimer; structures: Pichia pastoris GS115, C-terminal GFP-6xHis tag cut by TEV, MSP1D1 nanodiscs; patch clamp: pKH3 vector in HEK293T
T2 sequence (P92941 1-775 E55A/S56A): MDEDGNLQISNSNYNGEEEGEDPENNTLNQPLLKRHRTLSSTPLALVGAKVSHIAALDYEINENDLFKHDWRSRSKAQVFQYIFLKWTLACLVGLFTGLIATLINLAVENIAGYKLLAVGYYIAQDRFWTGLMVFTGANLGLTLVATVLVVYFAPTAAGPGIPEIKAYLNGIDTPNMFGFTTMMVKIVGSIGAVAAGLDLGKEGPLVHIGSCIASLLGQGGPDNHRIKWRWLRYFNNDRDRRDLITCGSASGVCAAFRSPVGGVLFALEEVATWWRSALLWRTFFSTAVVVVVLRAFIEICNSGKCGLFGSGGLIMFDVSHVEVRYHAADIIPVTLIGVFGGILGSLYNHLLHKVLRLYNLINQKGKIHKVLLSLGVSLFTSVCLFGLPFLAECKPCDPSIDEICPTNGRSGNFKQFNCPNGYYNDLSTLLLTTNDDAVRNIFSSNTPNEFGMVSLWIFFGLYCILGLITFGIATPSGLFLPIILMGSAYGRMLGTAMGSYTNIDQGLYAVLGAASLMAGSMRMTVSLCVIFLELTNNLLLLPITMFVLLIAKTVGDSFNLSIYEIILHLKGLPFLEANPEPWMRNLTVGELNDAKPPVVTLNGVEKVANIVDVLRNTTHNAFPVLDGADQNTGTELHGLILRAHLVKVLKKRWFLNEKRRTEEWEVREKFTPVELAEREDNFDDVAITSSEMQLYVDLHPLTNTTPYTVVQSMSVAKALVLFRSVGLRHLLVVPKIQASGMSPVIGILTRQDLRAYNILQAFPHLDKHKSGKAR

[4] = target: T3, AtCLCa ΔN44 mutant (Arabidopsis thaliana, UniProt P92941); assay: whole-cell patch clamp, HEK293T; type: cell-based; settings: 5 mM in pipette (cytosolic side); nitrate bath; pH 7.4
T3 construct: gene CLC-A; N-terminal 44-residue deletion, beta-hairpin retained, homodimer, pKH3 vector in HEK293T
T3 sequence (P92941 45-775): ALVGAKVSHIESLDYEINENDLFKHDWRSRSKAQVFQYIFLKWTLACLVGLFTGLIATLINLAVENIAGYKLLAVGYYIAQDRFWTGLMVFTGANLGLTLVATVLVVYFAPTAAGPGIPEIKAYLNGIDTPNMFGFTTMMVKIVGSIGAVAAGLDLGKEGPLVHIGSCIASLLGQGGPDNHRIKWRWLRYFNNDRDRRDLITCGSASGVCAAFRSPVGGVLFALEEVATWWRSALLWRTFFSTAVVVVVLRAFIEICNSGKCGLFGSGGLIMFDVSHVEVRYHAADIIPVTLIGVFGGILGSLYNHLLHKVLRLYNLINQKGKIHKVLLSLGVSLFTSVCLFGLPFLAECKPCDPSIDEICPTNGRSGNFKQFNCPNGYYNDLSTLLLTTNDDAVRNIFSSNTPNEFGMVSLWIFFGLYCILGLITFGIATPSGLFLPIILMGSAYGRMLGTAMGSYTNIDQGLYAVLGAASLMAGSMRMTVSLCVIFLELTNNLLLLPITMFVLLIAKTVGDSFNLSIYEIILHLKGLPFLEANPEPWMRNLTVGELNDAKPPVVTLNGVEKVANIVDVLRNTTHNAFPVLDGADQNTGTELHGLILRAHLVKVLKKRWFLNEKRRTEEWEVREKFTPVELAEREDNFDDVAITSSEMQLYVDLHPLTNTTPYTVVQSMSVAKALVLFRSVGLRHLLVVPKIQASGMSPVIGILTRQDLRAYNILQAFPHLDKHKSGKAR

[5] = target: T4, AtCLCa (Arabidopsis thaliana, UniProt P92941, D753A); assay: whole-cell patch clamp, HEK293T; type: cell-based; settings: 5 mM in pipette (cytosolic side); nitrate bath; pH 7.4
T4 construct: gene CLC-A; full-length, homodimer; structures: Pichia pastoris GS115, C-terminal GFP-6xHis tag cut by TEV, MSP1D1 nanodiscs; patch clamp: pKH3 vector in HEK293T
T4 sequence (P92941 1-775 D753A): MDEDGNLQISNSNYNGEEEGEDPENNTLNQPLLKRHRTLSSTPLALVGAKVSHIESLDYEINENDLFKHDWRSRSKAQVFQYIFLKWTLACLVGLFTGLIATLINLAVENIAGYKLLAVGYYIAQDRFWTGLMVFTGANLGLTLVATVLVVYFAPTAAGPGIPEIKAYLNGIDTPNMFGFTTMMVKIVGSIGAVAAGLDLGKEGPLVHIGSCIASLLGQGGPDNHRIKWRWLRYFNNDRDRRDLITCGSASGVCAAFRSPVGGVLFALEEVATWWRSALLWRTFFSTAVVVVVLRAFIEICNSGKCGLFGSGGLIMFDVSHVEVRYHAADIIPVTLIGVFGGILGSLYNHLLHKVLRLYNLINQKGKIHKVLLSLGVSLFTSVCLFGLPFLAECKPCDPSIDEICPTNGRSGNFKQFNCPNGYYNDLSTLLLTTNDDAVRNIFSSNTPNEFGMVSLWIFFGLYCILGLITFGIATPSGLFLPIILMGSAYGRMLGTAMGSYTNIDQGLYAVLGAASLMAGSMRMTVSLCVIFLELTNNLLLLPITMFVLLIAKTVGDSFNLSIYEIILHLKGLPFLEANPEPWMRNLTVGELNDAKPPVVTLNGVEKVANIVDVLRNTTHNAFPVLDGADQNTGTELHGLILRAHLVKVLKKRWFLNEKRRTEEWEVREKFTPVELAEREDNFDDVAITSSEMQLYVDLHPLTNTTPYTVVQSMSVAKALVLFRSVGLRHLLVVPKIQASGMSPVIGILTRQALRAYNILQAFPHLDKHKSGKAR

[6] = target: T5, AtCLCa ΔN53 mutant (Arabidopsis thaliana, UniProt P92941); assay: whole-cell patch clamp, HEK293T; type: cell-based; settings: 5 mM in pipette (cytosolic side); nitrate bath; pH 7.4
T5 construct: gene CLC-A; N-terminal deletion ΔN53 (beta-hairpin residues 44-53 removed), homodimer, pKH3 vector in HEK293T
T5 sequence (P92941 54-775): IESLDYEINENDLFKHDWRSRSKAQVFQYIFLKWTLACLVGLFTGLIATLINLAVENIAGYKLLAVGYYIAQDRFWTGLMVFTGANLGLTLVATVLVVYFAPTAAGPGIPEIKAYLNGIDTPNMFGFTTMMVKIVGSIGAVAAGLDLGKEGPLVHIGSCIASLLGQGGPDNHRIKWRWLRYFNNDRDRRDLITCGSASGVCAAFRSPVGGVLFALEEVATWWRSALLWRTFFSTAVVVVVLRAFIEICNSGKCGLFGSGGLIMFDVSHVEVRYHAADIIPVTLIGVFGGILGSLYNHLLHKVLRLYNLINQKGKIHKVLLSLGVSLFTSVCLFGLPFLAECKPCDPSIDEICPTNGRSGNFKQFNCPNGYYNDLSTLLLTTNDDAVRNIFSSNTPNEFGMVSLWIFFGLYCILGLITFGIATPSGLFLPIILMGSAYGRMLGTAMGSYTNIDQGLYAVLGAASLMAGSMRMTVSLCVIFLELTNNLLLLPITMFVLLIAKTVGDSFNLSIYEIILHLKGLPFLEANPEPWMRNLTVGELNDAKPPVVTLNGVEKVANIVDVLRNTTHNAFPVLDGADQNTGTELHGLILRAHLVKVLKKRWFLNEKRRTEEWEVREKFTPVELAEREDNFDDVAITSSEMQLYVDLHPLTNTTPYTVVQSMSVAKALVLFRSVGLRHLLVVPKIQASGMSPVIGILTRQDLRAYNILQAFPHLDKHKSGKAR

[7] = target: T1, AtCLCa; assay: whole-cell patch clamp, HEK293T; type: cell-based; parameters: gene CLC-A; full-length, homodimer; patch clamp: pKH3 vector in HEK293T; settings: 5 mM in pipette (cytosolic side); nitrate bath; pH 7.4; 5 mM MgCl2; room temperature
[8] = target: T1, AtCLCa; assay: cryo-EM structure, […] Å; type: binding; parameters: gene CLC-A; full-length, homodimer; structures: Pichia pastoris GS115, C-terminal GFP-6xHis tag cut by TEV, MSP1D1 nanodiscs; patch clamp: pKH3 vector in HEK293T; settings: Scen and Sint sites; 150 mM NaNO3, pH 8.0
[9] = target: the molecule itself; assay: cryo-EM structure; AtCLCa in MSP1D1 nanodiscs with soybean polar lipid; 20 mM Tris pH 8.0 with 150 mM NaCl (AtCLCa-Cl-) or 150 mM NaNO3 (AtCLCa-NO3-); C2 symmetry applied

Nc1ncnc2c1ncn2[C@@H]1O[C@H](COP(=O)(O)OP(=O)(O)O)[C@@H](O)[C@H]1O [ADP]
inhibition of NO3^- currents at 5 mM [1]: ADP produced a weak inhibition while AMP induced a negligible inhibition

Nc1ncnc2c1ncn2[C@@H]1O[C@H](COP(=O)(O)O)[C@@H](O)[C@H]1O [AMP]
inhibition of NO3^- currents at 5 mM [1]: ADP produced a weak inhibition while AMP induced a negligible inhibition

Nc1ncnc2c1ncn2[C@@H]1O[C@H](COP(=O)(O)OP(=O)(O)OP(O)(O)=S)[C@@H](O)[C@H]1O [ATP-γ-S]
inhibition of currents [2]: ATP-γ-S induced an inhibition comparable with ATP

Nc1ncnc2c1ncn2[C@@H]1O[C@H](COP(=O)(O)OP(=O)(O)OP(=O)(O)O)[C@@H](O)[C@H]1O [ATP]
inhibition of NO3^- currents at 5 mM [3]: (E55A/S56A) can completely abolish the inhibitory effect of ATP
inhibition of NO3^- currents at 5 mM [4]: exhibits similar inhibition pattern to wild-type AtCLCa upon ATP addition
inhibition of NO3^- currents at 5 mM [5]: D753A mutant impairs the inhibition of ATP
inhibition of NO3^- currents at 5 mM [6]: the NO3^− currents in ΔN53 mutant are not influenced by the addition of ATP
decrease of NO3^- currents at 5 mM [7]: led to a decrease of approximately half of the NO3^− currents induced by wild-type AtCLCa

O=[N+]([O-])O [NO3^−]
cryo-EM structure, 3.2 Å [8]: Scen and Sint were found of fair densities, which likely corresponds to the bound NO3^−

B1: Arabidopsis thaliana CLCa (AtCLCa) transporter (natural protein, UniProt P92941 1-775, looked up)
chain: MDEDGNLQISNSNYNGEEEGEDPENNTLNQPLLKRHRTLSSTPLALVGAKVSHIESLDYEINENDLFKHDWRSRSKAQVFQYIFLKWTLACLVGLFTGLIATLINLAVENIAGYKLLAVGYYIAQDRFWTGLMVFTGANLGLTLVATVLVVYFAPTAAGPGIPEIKAYLNGIDTPNMFGFTTMMVKIVGSIGAVAAGLDLGKEGPLVHIGSCIASLLGQGGPDNHRIKWRWLRYFNNDRDRRDLITCGSASGVCAAFRSPVGGVLFALEEVATWWRSALLWRTFFSTAVVVVVLRAFIEICNSGKCGLFGSGGLIMFDVSHVEVRYHAADIIPVTLIGVFGGILGSLYNHLLHKVLRLYNLINQKGKIHKVLLSLGVSLFTSVCLFGLPFLAECKPCDPSIDEICPTNGRSGNFKQFNCPNGYYNDLSTLLLTTNDDAVRNIFSSNTPNEFGMVSLWIFFGLYCILGLITFGIATPSGLFLPIILMGSAYGRMLGTAMGSYTNIDQGLYAVLGAASLMAGSMRMTVSLCVIFLELTNNLLLLPITMFVLLIAKTVGDSFNLSIYEIILHLKGLPFLEANPEPWMRNLTVGELNDAKPPVVTLNGVEKVANIVDVLRNTTHNAFPVLDGADQNTGTELHGLILRAHLVKVLKKRWFLNEKRRTEEWEVREKFTPVELAEREDNFDDVAITSSEMQLYVDLHPLTNTTPYTVVQSMSVAKALVLFRSVGLRHLLVVPKIQASGMSPVIGILTRQDLRAYNILQAFPHLDKHKSGKAR
notes: Arabidopsis thaliana CLCa, Uniprot P92941, full-length gene; C-terminal GFP-6xHis tag was fused by a short linker with a TEV protease site and cut off with TEV; residues of the linker may be left; also called AtCLCa-Cl-; AtCLCa-NO3-; source: Pichia pastoris GS115, purified (anti-GFP nanobody resin, TEV digestion, SEC), reconstituted into MSP1D1 nanodiscs; not shown: GFP, C-terminal, cleaved; …
stoichiometry N [9]: 2
